# pEC50: −log10 of the molar value.
# Test system: NL-RLuc virus
# Test: Inhibition of HIV Replication (NL-RLuc luciferase reporter virus in MT-2 cells)
# Format: cell-based
# Conditions: Human immunodeficiency virus 1, MT2, 120 h
# Text: Inhibition of HIV Replication:
# A recombinant NL-RLuc proviral clone was constructed in which a section of the nef gene from NL4-3 was replaced with the Renilla Luciferase gene. This virus is fully infectious and can undergo multiple cycles of replication in cell culture. In addition, the luciferous reporter provides a simple and easy method for quantitating the extent of virus growth and consequently, the antiviral activity of test compounds. The plasmid pNLRLuc contains the proviral NL-Rluc DNA cloned into pUC18 at the PvuII site. The NL-RLuc virus was prepared by transfection of 293T cells with the plasmid pNLRLuc. Transfections were performed using the LipofectAMINE PLUS kit from Invitrogen (Carlsbad, Calif.) according to the manufacturer and the virus generated was titered in MT-2 cells. For susceptibility analyses, the titrated virus was used to infect MT-2 cells in the presence of compound, and after 5 days of incubation, cells were processed and quantitated for virus growth by the amount of expressed luciferase. Assay media was RPMI 1640 supplemented with 10% heat inactivated fetal bovine serum (FBS), 100 units/ml penicillin G/100 units/ml streptomycin, 10 mM HEPES buffer pH 7.55 and 2 mM L-glutamine. The results from at least 2 experiments were used to calculate the EC50 values. Luciferase was quantitated using the Dual Luciferase kit from Promega (Madison, Wis.). Susceptibility of viruses to compounds was determined by incubation in the presence of serial dilutions of the compound. The 50% effective concentration (EC50) was calculated by using the exponential form of the median effect equation where (Fa)=1/[1+(ED50/drug conc.)^m] (Johnson V A, Byington R T. Infectivity Assay. In Techniques in HIV Research. ed. Aldovini A, Walker B D. 71-76. New York: Stockton Press. 1990).
row,Compound,pEC50
1,"Cc1nc(C)c([C@H](OC(C)(C)C)C(=O)O)c(N2CCC(C)(C)CC2)c1-c1ccc(OCc2ccc(F)cc2)cc1 [Example 2, (S)-2-(tert-butoxy)-2-(4-(4,4-dimethylpiperidin-1-yl)-5-(4-((4-fluorobenzyl)oxy)phenyl)-2,6-dimethylpyridin-3-yl)acetic acid]",7.92
2,"Cc1nc(C)c([C@H](OC(C)(C)C)C(=O)O)c(N2CCC(C)(C)CC2)c1-c1ccc(OCCc2ccc(C#N)cc2)cc1 [Example 18, (S)-2-(tert-Butoxy)-2-(5-(4-(4-cyanophenethoxy)phenyl)-4-(4,4-dimethylpiperidin-1-yl)-2,6-dimethylpyridin-3-yl)acetic acid]",8.70
3,"Cc1nc(C)c([C@H](OC(C)(C)C)C(=O)O)c(N2CCC(C)CC2)c1-c1ccc(OCCc2ccc(F)cc2)cc1 [Example 76, (S)-2-(tert-butoxy)-2-(5-(4-(4-fluorophenethoxy)phenyl)-2,6-dimethyl-4-(4-methylpiperidin-1-yl)pyridin-3-yl)acetic acid]",7.77
4,"Cc1nc(CCOc2ccc(-c3c(C)nc(C)c([C@H](OC(C)(C)C)C(=O)O)c3N3CCC(C)(C)CC3)cc2)cs1 [Example 42, (S)-2-(tert-butoxy)-2-(4-(4,4-dimethylpiperidin-1-yl)-2,6-dimethyl-5-(4-(2-(2-methylthiazol-4-yl)ethoxy)phenyl)pyridin-3-yl)acetic acid]",8.40
5,"Cc1nc(C)c([C@H](OC(C)(C)C)C(=O)O)c(N2CCC(C)(C)CC2)c1-c1ccc(OCCc2ccc(F)cc2F)cc1 [Example 23, (S)-2-(tert-butoxy)-2-(5-(4-(2,4-difluorophenethoxy)phenyl)-4-(4,4-dimethylpiperidin-1-yl)-2,6-dimethylpyridin-3-yl)acetic acid]",8.30
6,"Cc1nc(C)c([C@H](OC(C)(C)C)C(=O)O)c(N2CCC(C)(C)CC2)c1-c1ccc(OCCc2ccc(F)cc2)nc1 [Example 67, (S)-2-(tert-butoxy)-2-(4-(4,4-dimethylpiperidin-1-yl)-6′-(4-fluorophenethoxy)-2,6-dimethyl-[3,3′-bipyridin]-5-yl)acetic acid]",8.15
7,"Cc1nc(C)c([C@H](OC(C)(C)C)C(=O)O)c(N2CCC(C)(C)CC2)c1-c1ccc(OCCC(C)(C)C)cc1 [Example 14, (S)-2-(tert-butoxy)-2-(5-(4-(3,3-dimethylbutoxy)phenyl)-4-(4,4-dimethylpiperidin-1-yl)-2,6-dimethylpyridin-3-yl)acetic acid]",7.55
8,"Cc1nc(C)c([C@H](OC(C)(C)C)C(=O)O)c(N2CCC(C(F)(F)F)CC2)c1-c1ccc(OCCc2ccc(F)cc2)cc1 [Example 74, (S)-2-(tert-butoxy)-2-(5-(4-(4-fluorophenethoxy)phenyl)-2,6-dimethyl-4-(4-(trifluoromethyl)piperidin-1-yl)pyridin-3-yl)acetic acid]",6.42
9,"CO[C@H](COc1ccc(-c2c(C)nc(C)c([C@H](OC(C)(C)C)C(=O)O)c2N2CCC(C)(C)CC2)cc1)c1ccccc1 [Example 34, (S)-2-(tert-butoxy)-2-(4-(4,4-dimethylpiperidin-1-yl)-5-(4-((S)-2-methoxy-2-phenylethoxy)phenyl)-2,6-dimethylpyridin-3-yl)acetic acid]",7.96
10,"Cc1ccc(CCOc2ccc(-c3c(C)nc(C)c([C@H](OC(C)(C)C)C(=O)O)c3N3CCC(C)(C)CC3)cc2)s1 [Example 52, (S)-2-(tert-butoxy)-2-(4-(4,4-dimethylpiperidin-1-yl)-2,6-dimethyl-5-(4-(2-(5-methylthiophen-2-yl)ethoxy)phenyl)pyridin-3-yl)acetic acid]",8.30
11,"Cc1nc(C)c([C@H](OC(C)(C)C)C(=O)O)c(N2CCC(C)(C#N)CC2)c1-c1ccc(OCCc2ccc(F)cc2)cc1 [Example 78, (S)-2-(tert-butoxy)-2-(4-(4-cyano-4-methylpiperidin-1-yl)-5-(4-(4-fluorophenethoxy)phenyl)-2,6-dimethylpyridin-3-yl)acetic acid]",8.40

# — patent US9193720B2, “Pyridin-3-yl acetic acid derivatives as inhibitors of human immunodeficiency virus replication” (priority 2014, dated 2015)
